Source: patent US20260250318A1, “COMPOSITIONS AND METHODS FOR CROSSING THE BLOOD BRAIN BARRIER” (VOYAGER THERAPEUTICS, INC., priority 2022, published 2026)

Legend:
[1] = test system: brains, heart, liver, muscle, and DRG of the NHPs; test: Maturation of TTM-001 and TTM-002 capsids, NGS enrichment in NHP tissues; type: in vivo; details: relative to AAV9 control
Outline: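 Variants carry mutations within and flanking the loop IV peptide insert: positions 450–466 were triplet-randomized, while positions 449–466 received low-frequency point mutations. The combined pool went into two NHPs, and each peptide was scored by NGS enrichment ratio against AAV9.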

brain = test: Matured TTM-001 and TTM-002 variants, NGS enrichment in mouse brain; type: in vivo, mice; details: relative to AAV9 control
[2] = NGS fold-enrichment of matured AAV capsid variants, NHP brain, RNA
[3] = NGS fold-enrichment of RNA, NHP brain
[4] = NGS fold-enrichment, NHP liver DNA
[5] = NGS fold-enrichment, NHP liver RNA
[6] = NGS fold-enrichment, NHP muscle
[7] = NGS fold-enrichment, mouse brain
[8] = NGS fold-enrichment, DRG of NHPs
[9] = NGS fold-enrichment, RNA, brain of NHPs
[10] = NGS fold-enrichment, heart of NHPs
[11] = NGS fold-enrichment, liver DNA of NHPs
[12] = NGS fold-enrichment, liver RNA of NHPs
[13] = NGS fold-enrichment, muscle of NHPs
[14] = NGS fold-enrichment, brain of mice

| Sequence | Fold Enrichment relative to AAV9, Brain (NHP) [1, 2] | Fold Enrichment relative to AAV9, DRG (NHP) ([1]; NHP DRG) | Fold Enrichment relative to AAV9, Heart (NHP) ([1]; NHP heart) | Fold Enrichment relative to AAV9, Liver DNA (NHP) ([1]; NHP liver, DNA) | Fold Enrichment relative to AAV9, Liver RNA (NHP) ([1]; NHP liver, RNA) | Fold Enrichment relative to AAV9, Muscle (NHP) ([1]; NHP muscle) | Fold Enrichment relative to AAV9, Brain (Mouse) (brain; mouse brain) | Fold Enrichment relative to AAV9, Brain (NHP) [1, 3] | Fold Enrichment relative to AAV9, DRG (NHP) ([1]; NGS fold-enrichment, NHP DRG) | Fold Enrichment relative to AAV9, Heart (NHP) ([1]; NGS fold-enrichment, NHP heart) | Fold Enrichment relative to AAV9, Liver DNA (NHP) [1, 4] | Fold Enrichment relative to AAV9, Liver RNA (NHP) [1, 5] | Fold Enrichment relative to AAV9, Muscle (NHP) [1, 6] | Fold Enrichment relative to AAV9, DRG (NHP) [1, 8] | Fold Enrichment relative to AAV9, Brain (NHP) [1, 9] | Fold Enrichment relative to AAV9, Heart (NHP) [1, 10] | Fold Enrichment relative to AAV9, Liver DNA (NHP) [1, 11] | Fold Enrichment relative to AAV9, Liver RNA (NHP) [1, 12] | Fold Enrichment relative to AAV9, Muscle (NHP) [1, 13] | Fold Enrichment relative to AAV9, Brain (Mouse) (brain; [14]) | also measured |
| --- | --- | --- | --- | --- | --- | --- | --- | --- | --- | --- | --- | --- | --- | --- | --- | --- | --- | --- | --- | --- | --- |
| KTINGSGSPHSKAQIGMT | 59.013 fold | 0.081 fold | 106.528 fold | 0.248 fold | 1.003 fold | 0.000 fold | 134.585 fold |  |  |  |  |  |  |  |  |  |  |  |  |  |  |
| KTINGSGSPHSKSQSQLT | 55.430 fold | 0.000 fold | 0.035 fold | 0.013 fold | 0.050 fold | 0.000 fold | 125.577 fold |  |  |  |  |  |  |  |  |  |  |  |  |  |  |
| KTEQVSGSPHSKAQNQQT | 58.247 fold | 0.000 fold | 0.000 fold | 0.081 fold | 0.000 fold | 0.000 fold | 88.487 fold |  |  |  |  |  |  |  |  |  |  |  |  |  |  |
| KTEGKHDSPHKSGQNQQT |  |  |  |  |  |  |  | 98.384 fold | 0.000 fold | 0.056 fold | 0.000 fold | 0.000 fold | 0.000 fold |  |  |  |  |  |  |  | Fold Enrichment relative to AAV9, Brain (Mouse) (brain; [7]): 10.345 fold |
| KTINGSGSPHSKAQLPST | 56.238 fold | 0.005 fold | 4.258 fold | 0.185 fold | 1.040 fold | 0.001 fold | 84.918 fold |  |  |  |  |  |  |  |  |  |  |  |  |  |  |
| KTIQDGGSPHSKAQNQQT |  |  |  |  |  |  |  |  |  |  |  |  |  | 0.000 fold | 59.865 fold | 0.000 fold | 0.789 fold | 1.435 fold | 0.116 fold | 87.522 fold |  |
| KTINGHESPHKSGQTQQI |  |  |  |  |  |  |  | 86.089 fold | 0.000 fold | 0.222 fold | 0.024 fold | 0.000 fold | 0.000 fold |  |  |  |  |  |  |  | Fold Enrichment relative to AAV9, Brain (Mouse) (brain; [7]): 3.989 fold |
| KTEDRSGSPHSKAQNQQT |  |  |  |  |  |  |  |  |  |  |  |  |  | 0.000 fold | 61.756 fold | 0.000 fold | 0.408 fold | 1.004 fold | 0.000 fold | 66.887 fold |  |
| KNINGGGSPHSKAQNQQT |  |  |  |  |  |  |  | 83.083 fold | 0.000 fold | 0.042 fold | 0.000 fold | 0.000 fold | 0.000 fold | 0.000 fold | 83.083 fold | 0.042 fold | 0.000 fold | 0.000 fold | 0.000 fold | 75.913 fold | Fold Enrichment relative to AAV9, Brain (Mouse) (brain; [7]): 75.913 fold |
| KTNNGSGSPHSKAQNQQY |  |  |  |  |  |  |  |  |  |  |  |  |  | 0.000 fold | 68.530 fold | 0.040 fold | 0.059 fold | 0.000 fold | 0.000 fold | 82.656 fold |  |
| KTVNGGGSPHSKAQHQQT | 58.602 fold | 0.729 fold | 0.000 fold | 0.043 fold | 0.000 fold | 0.000 fold | 138.544 fold |  |  |  |  |  |  |  |  |  |  |  |  |  |  |
| KTEKSSGSPHSKAQNQQT |  |  |  |  |  |  |  | 107.470 fold | 0.000 fold | 0.016 fold | 0.179 fold | 0.977 fold | 0.014 fold | 0.000 fold | 107.470 fold | 0.016 fold | 0.179 fold | 0.977 fold | 0.014 fold | 100.177 fold | Fold Enrichment relative to AAV9, Brain (Mouse) (brain; [7]): 100.177 fold |
| KAINGSGSPHSKAQDQET |  |  |  |  |  |  |  | 84.080 fold | 0.000 fold | 0.000 fold | 0.027 fold | 0.194 fold | 0.000 fold | 0.000 fold | 84.080 fold | 0.000 fold | 0.027 fold | 0.194 fold | 0.000 fold | 87.637 fold | Fold Enrichment relative to AAV9, Brain (Mouse) (brain; [7]): 87.637 fold |
| KTVNGSGSPHSKAQLQQT | 58.681 fold | 0.315 fold | 0.465 fold | 0.333 fold | 0.529 fold | 0.045 fold | 81.201 fold |  |  |  |  |  |  |  |  |  |  |  |  |  |  |
| KTINGSGSPHSKAQVPAT | 54.475 fold | 0.000 fold | 0.002 fold | 0.223 fold | 0.782 fold | 0.000 fold | 137.743 fold |  |  |  |  |  |  |  |  |  |  |  |  |  |  |
| KTIIKNGSPHSKAQNQQT | 50.587 fold | 0.000 fold | 0.000 fold | 0.751 fold | 0.000 fold | 0.000 fold | 75.547 fold |  |  |  |  |  |  |  |  |  |  |  |  |  |  |
| KTDVNSGSPHSKAQNQQT | 57.593 fold | 0.000 fold | 0.000 fold | 0.331 fold | 0.000 fold | 0.000 fold | 66.127 fold |  |  |  |  |  |  |  |  |  |  |  |  |  |  |
| KTDKTSGSPHSKAQNQQT |  |  |  |  |  |  |  | 81.430 fold | 0.000 fold | 0.000 fold | 0.291 fold | 1.362 fold | 0.000 fold | 0.000 fold | 81.430 fold | 0.000 fold | 0.291 fold | 1.362 fold | 0.000 fold | 169.515 fold | Fold Enrichment relative to AAV9, Brain (Mouse) (brain; [7]): 169.515 fold |
| KTGNGSGSPHSKAQIQQT | 52.809 fold | 0.000 fold | 0.000 fold | 0.012 fold | 0.000 fold | 0.000 fold | 98.291 fold |  |  |  |  |  |  |  |  |  |  |  |  |  |  |
| KAINGSGSPHSKAQSQQI | 56.976 fold | 0.000 fold | 0.000 fold | 0.000 fold | 0.000 fold | 0.000 fold | 57.052 fold |  |  |  |  |  |  |  |  |  |  |  |  |  |  |
